Measured values published in patent US11813235B2, “Guanfacine as an anti-virulence agent” (priority 2019, dated 2023).
Like-named read-outs stand apart in the source and are kept apart here. *1 amine or outer side, *2 acyl side, *3 side chain or, on linkers, in order; H or OH if unused. Where a SMILES comes first, the peptide text is derived from it. Bridges are numbered along the chain shown (N, C = ends). [ ]: non-standard residue; d: D form. The star is where a group is joined. hTyr(3S-OH,4S-OH,3'-OSO3H) = N[C@H](C(=O)O)[C@H](O)[C@@H](O)c1ccc(O)c(OS(=O)(=O)O)c1; Orn(4R-OH,5R-OH) = O=C([C@H](C[C@@H](O)[C@@H](O)N[*:3])N[*:1])[*:2]; Pro(3S-OH,4S-Me) = C[C@H]1CN[C@H](C(=O)O)[C@H]1O; X1 = CCCCCOc1ccc(-c2cc(-c3ccc(C(=O)*)cc3)no2)cc1; Gln(3R-OH) = NC(=O)C[C@@H](O)[C@H](N)C(=O)O; Hyp = O=C(O)[C@@H]1C[C@@H](O)CN1

Assays:
P. aeruginosa [1] = assay type: cell-based, Pseudomonas aeruginosa
Protocol: Growth and high-throughput LacZ assays were optimized in a 384-well plate format using three reporter strains In order to identify down-regulators of virulence, rather than growth-inhibitors of P. aeruginosa, special care was taken to eliminate compounds that (i) interfered with the LacZ assay and (ii) affected P. aeruginosa growth. […] Growth-inhibition assays using the small molecule library were performed by monitoring optical density at 600 nm (OD600 nm).
(§6) In various examples, bacterial growth was carried out in LB supplemented with 50 mM Mops, pH 7.0 (hereafter, LB-Mops). To commence a screen, a P. aeruginosa reporter strain from an LB agar plate was used to inoculate 5 mL of LB-Mops medium in a sterile 14-mL bacterial culture tube. The culture was grown for 4 h at 30° C./250 rpm. After 4 h, its optical density (OD600 nm) was determined on a Cary 60 UV-visible spectrophotometer (Agilent). The culture was diluted into 100 mL of LB-Mops to give a final OD600 nm of 0.05. Subsequently a volume of 50 μL was dispensed into each of six sterile, 384 well plates (Corning) using a Multiflo Microplate Dispenser (Biotek). Candidate elicitors were added to the plates using a CyBi-Well automated liquid transfer robot (CyBio). Each well was supplemented with 0.2 μL of a compound from the Enzo Scientific FDA approved drug library, which comprises 770 molecules. The compounds were dispensed into columns 3 through 22 on each plate. Columns 2 and 23 contained the negative control (the reporter strain being tested in the absence of any compounds), and columns 1 and 24 contained the positive control (e.g., strain phzB2-lacZ). Each compound was tested in duplicate, using three 384-well plates per set. Each plate was covered with a Breathe-Easy sealing membrane (Sigma) and cultured at 30° C./250 rpm in a Multitron Shaker (ATR) equipped with green sealing tray. To maintain constant humidity, several 1-L Erlenmeyer flasks containing 200 mL of sterile water were also placed inside the shaker. After 12 h, the plates were removed from the shaker. The β-Glo reagent (Promega) was used to monitor LacZ activity. The reagent was diluted 3:1 with water. Then each well was supplemented with 15 μL of the diluted β-Glo reagent using the Multiflo automated dispenser, manually shaken to mix, and incubated in the dark at room temperature for 10 min. Total end-point luminescence was then determined on a Synergy H1MF plate reader (Biotek).

[2] = tested on: virulence factor expression (seven lacZ reporter strains); assay type: cell-based, Pseudomonas aeruginosa
Excerpt: Seven reporter strains from the sequence-verified transposon mutant library generated by Manoil and colleagues were identified, in which transposons carrying a promoterless lacZ reporter were inserted into the genome of P. aeruginosa. The strains selected carried an in-frame lacZ reporter in aprD (alkaline protease), pqsA (PQS biosynthesis), hcnB (HCN biosynthesis), algK (alginate biosynthesis), phzB2 and phzF1 (phenazine biosynthesis from two different gene clusters), and plcH (phospholipase C). […] By carrying out an ex vivo LacZ assay, all LacZ assay inhibitors in a library of small molecules were identified. Growth-inhibition assays using the small molecule library were performed by monitoring optical density at 600 nm (OD600 nm).
After a defined growth period, the expression of each of the seven reporter strains was determined using high-throughput LacZ assays. The LacZ activity was normalized relative to the negative control. The log10 of the fold-change for each of the seven strains were combined and colorized to produce an anti-virulence heat-map.
as §6

phzF1-lacZ = assay: microbe, parasite or virus in culture; assay type: cell-based
[3] = tested on: P. aeruginosa phzF1-lacZ strain; assay: Dose-dependent growth inhibition of phzF1-lacZ strain by antibiotics; assay type: cell-based
HHQ and PQS production = assay: HPLC-MS quantification of HHQ and PQS in wt P. aeruginosa; assay type: cell-based, Pseudomonas aeruginosa
Protocol: FIG. 3D is a graph showing the relative quantification of HHQ and PQS produced by wt P. aeruginosa as a function of guanfacine concentration, normalized to an untreated control.
[…]. This HPLC analysis of cell-free supernatants of P. aeruginosa in the absence (solid lines) or presence (dashed lines) of 40 μM guanfacine. Peaks corresponding to HHQ and PQS are labeled, peaks of other quinolones are indicated with an asterisk.
The effects of guanfacine were probed further by measuring the levels of pyocyanin, a downstream product of phenazine. Pyocyanin is the blue secondary metabolite responsible for both the toxicity and characteristic color of P. aeruginosa. […]. […] To verify that guanfacine acts upstream of both products, levels of quinolines were directly measured. […]
(§1) HPLC-MS analysis. Direct detection and quantification of HHQ and PQS was carried out by growing wt P. aeruginosa under identical conditions as described above (for growth in 50 mL Erlenmeyer flasks). […] The organic layer was separated, dried completely in a speedvac concentrator, resuspended in 0.5 mL of MeOH, and analysed on an Agilent HPLC-MS consisting of a liquid autosampler, a 1260 Infinity Series HPLC system coupled to a photodiode array detector and a 6120 Series ESI mass spectrometer. […]

[4] = tested on: pmrB::Tn mutant (QseC homolog); assay: HHQ and pyocyanin production in pmrB::Tn mutant; assay type: cell-based, Pseudomonas aeruginosa; details: pmrB::Tn cultures supplemented with guanfacine
Protocol: FIG. 4 is a graph of the quantification of the levels of HHQ (black bars) and pyocyanin (white bars) in guanfacine-treated and untreated cultures.
To explore this idea, a mutant carrying a transposon insertion in pmrB (pmrB::Tn) was tested. Both wt and mutant strains were grown in the presence of guanfacine or DMSO (control), and the production of HHQ was quantified directly using HPLC-MS, while pyocyanin synthesis was assessed as previously reported. […] In the absence of the sensor His kinase, guanfacine was unable to exert its down-regulatory effect, especially with pyocyanin where significant production remained.
as §1
(§2) Pyocyanin quantification. Pyocyanin quantification was carried by a method adapted from Essar et al.[17] […] 120 μL of this extract was transferred to a clear 96-well plate and the OD520 nm was recorded using a plate reader. […]

phzB2-lacZ = phzB2-lacZ reporter dose-response; assay type: cell-based; details: Pseudomonas aeruginosa, read-out: IC50, concentration at which half-maximal down-regulation was observed (phzB2 reporter)
Protocol: FIG. 3B is a graph showing the dose-response of phzB2-lacZ as a function of guanfacine concentration.
Assays were carried out in 50 mL Erlenmeyer flasks containing 10 mL of LB-Mops. For LacZ assays, an appropriate reporter strain from an LB agar plate was used to inoculate 5 mL of LB-Mops in a sterile 14 mL bacterial culture tube. After 4 h, OD600 nm was determined, and the culture subsequently diluted to an initial OD600 nm of 0.05 in a 50 mL Erlenmeyer flask. The compound of interest was added from stock concentrations generated in DMSO. A control containing only DMSO was also included. Assays were typically carried out in three biological replicates. A positive control culture, phzB2-lacZ in the absence of any compounds, was grown in parallel as well. The cultures were grown at 30° C./200 rpm. After 12 h, 65 μL was removed from each culture flask and dispensed into a sterile, white 96-well plate (Corning). Each well was supplemented with 35 μL of 3:1 diluted β-Glo reagent (Promega). The plate was incubated in the dark at room temperature for 10 minutes. End-point luminescence was determined on a Biotek H1MF plate reader. To obtain IC50 values, the averaged luminescence output (used to determine LacZ activity) was plotted against the log of the concentration of the inhibitor. The data were fit to a dose-response curve using GraphPad Prism software.

pelB-lacZ = pelB-lacZ reporter dose-response; assay type: cell-based, Pseudomonas aeruginosa
Excerpt: (§3) FIG. 3F is a graph of the dose-response of the expression of pelG and pelB, involved in biofilm production, as a function of guanfacine concentration, using the appropriate LacZ reporter strain.
(§4) Another important virulence determinant in P. aeruginosa is biofilm formation. A cluster of genes, termed pel regulated by the las QS system, have been established as responsible for producing the biofilm matrix exopolysaccharide. Two reporter strains carrying translational lacZ fusions (pelB-lacZ and pelG-lacZ) were subjected to guanfacine dose-response analysis. […].
(§5) Assays were carried out in 50 mL Erlenmeyer flasks containing 10 mL of LB-Mops. For LacZ assays, an appropriate reporter strain from an LB agar plate was used to inoculate 5 mL of LB-Mops in a sterile 14 mL bacterial culture tube. After 4 h, OD600 nm was determined, and the culture subsequently diluted to an initial OD600 nm of 0.05 in a 50 mL Erlenmeyer flask. The compound of interest was added from stock concentrations generated in DMSO. A control containing only DMSO was also included. Assays were typically carried out in three biological replicates. […] End-point luminescence was determined on a Biotek H1MF plate reader. To obtain IC50 values, the averaged luminescence output (used to determine LacZ activity) was plotted against the log of the concentration of the inhibitor. […]

pyocyanin biosynthesis = assay: Pyocyanin quantification; assay type: cell-based, Pseudomonas aeruginosa; details: treated vs untreated cultures, concentration-dependent
Excerpt: FIG. 3C is a graph showing the dose-dependent reduction of pyocynanin biosynthesis as a function of guanfacine concentration.
The effects of guanfacine were probed further by measuring the levels of pyocyanin, a downstream product of phenazine. Pyocyanin is the blue secondary metabolite responsible for both the toxicity and characteristic color of P. aeruginosa. […]. Without being bound to a particular theory, the likely cause of the incomplete suppression of pyocyanin synthesis is the existence of two independently-expressed copies of the phenazine biosynthetic operon. Nonetheless, the direct measurement of pyocyanin corroborates results observed with the reporter strains. The production of both phenazines and pyocyanin is known to be regulated by the las and pqs QS circuits. Specifically, in response to 3O-C12-HSL, LasR induces expression of the pqs operon and the LysR-type regulator, PqsR. The PQS/PqsR complex then activates phenazine and pyocyanin synthesis. To verify that guanfacine acts upstream of both products, levels of quinolines were directly measured. […].
as §2

pelG-lacZ = pelG-lacZ reporter dose-response; assay type: cell-based, Pseudomonas aeruginosa
Excerpt: as §3, §4, §5

[5] = tested on: seven virulence genes (aprD, pqsA, hcnB, algK, phzB2, phzF1, plcH lacZ reporters); assay: LacZ assay in flask cultures, seven virulence reporter strains; assay type: cell-based, Pseudomonas aeruginosa; details: relative to untreated control
Excerpt: FIG. 3A is a graph showing the transcriptional down-regulation of seven virulence genes by guanfacine relative to an untreated control.
The effect of guanfacine on the expression of virulence factors was verified in flask cultures. […].
In one example, reporter genes for the various virulence factors encoded in the P. aeruginosa genome were selected. Seven reporter strains from the sequence-verified transposon mutant library generated by Manoil and colleagues were identified, in which transposons carrying a promoterless lacZ reporter were inserted into the genome of P. aeruginosa. The strains selected carried an in-frame lacZ reporter in aprD (alkaline protease), pqsA (PQS biosynthesis), hcnB (HCN biosynthesis), algK (alginate biosynthesis), phzB2 and phzF1 (phenazine biosynthesis from two different gene clusters), and plcH (phospholipase C). […]
Assays were carried out in 50 mL Erlenmeyer flasks containing 10 mL of LB-Mops. […] After 4 h, OD600 nm was determined, and the culture subsequently diluted to an initial OD600 nm of 0.05 in a 50 mL Erlenmeyer flask. […] End-point luminescence was determined on a Biotek H1MF plate reader. To obtain IC50 values, the averaged luminescence output (used to determine LacZ activity) was plotted against the log of the concentration of the inhibitor. […]

P. aeruginosa [6] = assay: Growth curve of P. aeruginosa in absence and presence of guanfacine; assay type: cell-based, Pseudomonas aeruginosa; details: 10, 20, 40 and 80 μM guanfacine
Protocol: FIG. 2 is a graph showing the growth curve of P. aeruginosa in the absence (DMSO) and presence of guanfacine in various concentrations (10 μM, 20 μM, 40 μM, and 80 μM).

[7] = relative to the untreated strain, OD600 nm after 12 h
[8] = LacZ activity normalized to negative control, seven reporter strains
[9] = Pseudomonas aeruginosa; read-out: EC50, concentration at which induction of phzF1-lacZ was half-maximal
[10] = Pseudomonas aeruginosa, PHZF1LACZSTRAIN; read-out: growth-inhibitory IC50

## O=C(N[C@H](CO)[C@H](O)c1ccc([N+](=O)[O-])cc1)C(Cl)Cl [Chloramphenicol]
P. aeruginosa [1]; [7]
  % Growth Inhibition: 64%

## [H]/N=C(\N/C(=N/[H])NCCCCCCNC(=N)NC(=N)Nc1ccc(Cl)cc1)Nc1ccc(Cl)cc1 [Chlorhexidine]
P. aeruginosa [1]; [7]
  % Growth Inhibition: 96%

## C[C@]12CC[C@@H]3c4ccc(O)cc4CC[C@H]3[C@@H]1CC[C@@H]2O [Estradiol]
P. aeruginosa [1]; [7]
  % Growth Inhibition: 73%

## CCCCCCCCc1ccc(CCC(N)(CO)CO)cc1 [Fingolimod]
P. aeruginosa [1]; [7]
  % Growth Inhibition: 76%

## CCCCCOc1ccc(-c2cc(-c3ccc(C(=O)N[C@H]4C[C@@H](O)[C@@H](O)NC(=O)[C@@H]5[C@@H](O)[C@@H](C)CN5C(=O)[C@H]([C@H](O)CC(N)=O)NC(=O)[C@H]([C@H](O)[C@@H](O)c5ccc(O)c(OS(=O)(=O)O)c5)NC(=O)[C@@H]5C[C@@H](O)CN5C(=O)[C@H]([C@@H](C)O)NC4=O)cc3)no2)cc1 [Micafungin] (X1-[Orn(4R-OH,5R-OH)]T[Hyp][hTyr(3S-OH,4S-OH,3'-OSO3H)][Gln(3R-OH)][Pro(3S-OH,4S-Me)]; lactam 1-C)
P. aeruginosa [1]; [7]
  % Growth Inhibition: 54%

## CCN1CCN(C(=O)N[C@@H](C(=O)N[C@@H]2C(=O)N3[C@@H]2SC(C)(C)[C@@H]3C(=O)O)c2ccccc2)C(=O)C1=O [Piperacillin]
[2]; [8]
  effect on virulence factor expression in screen: further enhance the expression of virulence factors
phzF1-lacZ; [9]
  EC50: 8.4 µM
[3]; [10]
  IC50: 6.4 µM

## CC/C(=C(\c1ccccc1)c1ccc(OCCN(C)C)cc1)c1ccccc1 [Tamoxifen]
P. aeruginosa [1]
  % Growth Inhibition: 57%

## COc1cc(Cc2cnc(N)nc2N)cc(OC)c1OC [Trimethoprim]
P. aeruginosa [1]
  % Growth Inhibition: 73%

## CN1CCc2cccc3c2[C@H]1Cc1ccc(O)c(O)c1-3 [apomorphine]
[2]
  effect on virulence factor expression in screen: A similar effect

## CO/N=C(\C(=O)N[C@@H]1C(=O)N2C(C(=O)O)=C(C[N+]3(C)CCCC3)CS[C@H]12)c1csc(N)n1 [cefepime]
[3]; [10]
  IC50: 4.6 µM

## C/C=C/C1=C(C(=O)O)N2C(=O)[C@@H](NC(=O)[C@H](N)c3ccc(O)cc3)[C@H]2SC1 [cefprozil]
phzF1-lacZ; Pseudomonas aeruginosa, read-out: EC50, concentration at which induction of phzF1-lacZ was half-maximal
  EC50: 58 µM
[3]; Pseudomonas aeruginosa, PHZF1LACZSTRAIN, read-out: growth-inhibitory IC50
  IC50: 362 µM

## CC(C)(O/N=C(\C(=O)N[C@@H]1C(=O)N2C(C(=O)O)=C(C[n+]3ccccc3)CS[C@H]12)c1csc(N)n1)C(=O)O [ceftazidime]
phzF1-lacZ; [9]
  EC50: 21 µM
[3]; [10]
  IC50: 53 µM

## N=C(N)NC(=O)Cc1c(Cl)cccc1Cl [guanfacine]
HHQ and PQS production
  levels of HHQ, PQS and several other quinolines: decreased levels
HHQ and PQS production; 40 μM guanfacine
  fold less PQS relative to DMSO-treated control: 4.5 fold
[2]; [8]
  effect on virulence factor expression in screen: A similar effect
[4]
  effect on HHQ and pyocyanin production in pmrB::Tn cultures: no further effect
phzB2-lacZ
  IC50: 19 µM
pelB-lacZ; 80 μM guanfacine
  suppression of pelB expression: Nearly complete suppression
pelB-lacZ; Pseudomonas aeruginosa, pelB-lacZ
  IC50: 5.8 µM
Pyocyanin biosynthesis
  reduction in the levels of pyocyanin: 1.5 fold
pelG-lacZ; 80 μM guanfacine
  suppression of pelG expression: Nearly complete suppression
pelG-lacZ; Pseudomonas aeruginosa, pelG-lacZ
  IC50: 3.1 µM
[5]
  reduction of reporter expression across seven reporter strains: 2-9 fold
P. aeruginosa [6]
  growth inhibition (growth curve versus DMSO control): not growth-inhibitory

## CC(C)Cc1ccc(C(C)C(=O)O)cc1 (stereo not drawn) [ibuprofen]
[2]; [8]
  effect on virulence factor expression in screen: down-regulated virulence factor expression

## CC(C(=O)O)c1cccc(C(=O)c2ccccc2)c1 (stereo not drawn) [ketoprofen]
[2]
  effect on virulence factor expression in screen: down-regulated virulence factor expression

## COc1ccc2cc([C@H](C)C(=O)O)ccc2c1 [naproxen]
[2]
  effect on virulence factor expression in screen: down-regulated virulence factor expression

## Cc1ccc(C(=O)c2cc(O)c(O)c([N+](=O)[O-])c2)cc1 [tolcapone]
[2]; [8]
  effect on virulence factor expression in screen: A similar effect

## Colistin
P. aeruginosa [1]; [7]
  % Growth Inhibition: 96%
